Source: ChEMBL document CHEMBL4808181, “Hydrophobic Pocket Occupation Design of Difluoro-Biphenyl-Diarylpyrimidines as Non-Nucleoside HIV-1 Reverse Transcriptase Inhibitors: from N-Alkylation to Methyl Hopping on the Pyrimidine Ring” (J Med Chem, 2021)

Columns and labels:
[1] = Metabolic stability in human liver microsomes; format: ADME, Microsome
[2] = Selectivity index, ratio of CC50 for cytotoxicity against human MT-4 cells to EC50 for inhibition of HIV-1 p66/51 reverse transcriptase L100I mutant; format: toxicity, cell-based; conditions: read-out: Ratio CC50/EC50
[3] = molecular target: Human immunodeficiency virus type 1 reverse transcriptase (Human immunodeficiency virus 1, UniProt Q72547); assay: Inhibition of recombinant wild type p66/p51 HIV1 reverse transcriptase incubated for 40 mins by picogreen dye-based spectrofluorometric analysis
[4] = Cytotoxicity against in human MT-4 cells after 5 days by MTT assay; format: cell-based, MT4; conditions: time 5 day
[5] = Selectivity index, ratio of CC50 for human MT-4 cells to EC50 for HIV-1 infected in MT-4 cells; format: toxicity, cell-based; conditions: read-out: Ratio CC50/EC50
[6] = system: Human immunodeficiency virus 1; assay: Antiviral activity against HIV-1 infected in human MT-4 cells assessed as reduction in virus-induced cytopathic effect incubated for 5 days by MTT assay; format: functional, organism-based; conditions: Human immunodeficiency virus 1, MT4, 120 h
[7] = Inhibition of HIV-1 p66/p51 reverse transcriptase E138K mutant incubated for 40 mins by picogreen dye-based spectrofluorometric analysis; design: species or system Human immunodeficiency virus 1
[8] = molecular target: Human immunodeficiency virus type 1 reverse transcriptase (Human immunodeficiency virus 1, UniProt Q72547, L100I); assay: Inhibition of HIV-1 p66/p51 reverse transcriptase L100I mutant incubated for 40 mins by picogreen dye-based spectrofluorometric analysis
[9] = Selectivity index, ratio of CC50 for cytotoxicity against human MT-4 cells to EC50 for inhibition of HIV-1 p66/51 reverse transcriptase Y188L mutant; format: toxicity, cell-based; conditions: read-out: Ratio CC50/EC50
[10] = Selectivity index, ratio of CC50 for cytotoxicity against human MT-4 cells to EC50 for inhibition of HIV-1 p66/51 reverse transcriptase Y181C mutant; format: toxicity, cell-based; conditions: read-out: Ratio CC50/EC50
[11] = Inhibition of HIV-1 p66/p51 reverse transcriptase Y188L mutant incubated for 40 mins by picogreen dye-based spectrofluorometric analysis; design: species or system Human immunodeficiency virus 1
[12] = molecular target: Human immunodeficiency virus type 1 reverse transcriptase (Human immunodeficiency virus 1, UniProt Q72547, Y181C); assay: Inhibition of HIV-1 p66/p51 reverse transcriptase Y181C mutant incubated for 40 mins by picogreen dye-based spectrofluorometric analysis
[13] = molecular target: Human immunodeficiency virus type 1 reverse transcriptase (Human immunodeficiency virus 1, UniProt Q72547, K103N); assay: Inhibition of HIV-1 p66/p51 reverse transcriptase K103N mutant incubated for 40 mins by picogreen dye-based spectrofluorometric analysis
[14] = Selectivity index, ratio of CC50 for cytotoxicity against human MT-4 cells to EC50 for inhibition of HIV-1 p66/51 reverse transcriptase E138K mutant; format: toxicity, cell-based; conditions: read-out: Ratio CC50/EC50
[15] = Selectivity index, ratio of CC50 for cytotoxicity against human MT-4 cells to EC50 for inhibition of HIV-1 p66/51 reverse transcriptase K103N mutant; format: toxicity, cell-based; conditions: read-out: Ratio CC50/EC50
[16] = AUC in Wistar rat at 5 mg/kg, po; format: ADME, organism-based; design: dose 5 mg/kg; conditions: in vivo
[17] = Half life in Wistar rat at 1 mg/kg, iv; format: ADME, organism-based; conditions: in vivo
[18] = Cmax in Wistar rat at 5 mg/kg, po; format: ADME, organism-based; design: route oral, dose 5 mg/kg; conditions: in vivo
[19] = Acute toxicity in pregnant mouse assessed as death at 2 g/kg, ig; conditions: in vivo, po, 2000 mg/kg
[20] = Metabolic stability in rat liver microsomes assessed as half life; format: ADME, Microsome
[21] = Toxicity in healthy female mouse assessed as kidney damage at 2 g/kg, ig monitored for 2 weeks by HE staining based assay; format: tissue-based; conditions: in vivo, po, 2000 mg/kg, 336 h
[22] = system: Human immunodeficiency virus type 1 reverse transcriptase (Human immunodeficiency virus 1), Q72547 [K103N]; assay: Potency index, ratio of NVP EC50 to test compound EC50 for inhibition of HIV-1 p66/p51 reverse transcriptase K103N mutant
[23] = Toxicity in healthy female mouse assessed as liver damage at 2 g/kg, ig monitored for 2 weeks by HE staining based assay; format: tissue-based; conditions: in vivo, po, 2000 mg/kg, 336 h
[24] = Metabolic stability in mouse liver microsomes assessed as intrinsic clearance per mg protein; format: ADME, Microsome
[25] = Metabolic stability in rat liver microsomes; format: ADME, Microsome
[26] = Acute toxicity in healthy female mouse assessed as behavioral abnormalities at 2 g/kg, ig measured for 2 weeks; conditions: in vivo, po, 2000 mg/kg, 336 h
[27] = Half life in Wistar rat at 5 mg/kg, po; format: ADME, organism-based; conditions: in vivo
[28] = Tmax in Wistar rat at 5 mg/kg, po; format: ADME, organism-based; conditions: in vivo
[29] = Acute toxicity in healthy female mouse assessed as increase in body weight at 2 g/kg, ig; conditions: in vivo, po, 2000 mg/kg
[30] = Metabolic stability in mouse liver microsomes assessed as half life; format: ADME, Microsome
[31] = Acute toxicity in healthy mouse assessed as death at 2 g/kg, ig; conditions: in vivo, po, 2000 mg/kg
[32] = Acute toxicity in pregnant mouse assessed as offspring survival rate at 2 g/kg, ig; conditions: in vivo, po, 2000 mg/kg
[33] = Toxicity in healthy female mouse assessed as lung damage at 2 g/kg, ig monitored for 2 weeks by HE staining based assay; format: tissue-based; conditions: in vivo, po, 2000 mg/kg, 336 h
[34] = MRTinfinity in Wistar rat at 1 mg/kg, iv; format: ADME, organism-based; conditions: in vivo
[35] = MRTinfinity in Wistar rat at 5 mg/kg, po; format: ADME, organism-based; conditions: in vivo
[36] = Toxicity in healthy female mouse assessed as brain damage at 2 g/kg, ig monitored for 2 weeks by HE staining based assay; format: tissue-based; conditions: in vivo, po, 2000 mg/kg, 336 h
[37] = system: Human immunodeficiency virus type 1 reverse transcriptase (Human immunodeficiency virus 1), Q72547 [K103N]; assay: Potency index, ratio of EFV EC50 to test compound EC50 for inhibition of HIV-1 p66/p51 reverse transcriptase K103N mutant
[38] = Acute toxicity in pregnant mouse assessed as abortion at 2 g/kg, ig; conditions: in vivo, po, 2000 mg/kg
[39] = Toxicity in pregnant mouse assessed as kidney damage at 2 g/kg, ig monitored for 2 weeks by HE staining based assay; format: tissue-based; conditions: in vivo, po, 2000 mg/kg, 336 h
[40] = AUC in Wistar rat at 1 mg/kg, iv; format: ADME, organism-based; design: dose 1 mg/kg; conditions: in vivo
[41] = AUCinfinity in Wistar rat at 1 mg/kg, iv; format: ADME, organism-based; design: route intravenous, time infinity, dose 1 mg/kg; conditions: in vivo
[42] = Toxicity in healthy female mouse assessed as heart damage at 2 g/kg, ig monitored for 2 weeks by HE staining based assay; format: tissue-based; conditions: in vivo, po, 2000 mg/kg, 336 h
[43] = Metabolic stability in human liver microsomes assessed as intrinsic clearance per mg protein; format: ADME, Microsome; conditions: read-out: CLH
[44] = Toxicity in pregnant mouse assessed as lung damage at 2 g/kg, ig monitored for 2 weeks by HE staining based assay; format: tissue-based; conditions: in vivo, po, 2000 mg/kg, 336 h
[45] = Acute toxicity in pregnant mouse assessed as behavioral abnormalities at 2 g/kg, ig measured for 2 weeks; conditions: in vivo, po, 2000 mg/kg, 336 h
[46] = Metabolic stability in mouse liver microsomes; format: ADME, Microsome
[47] = Acute toxicity in pregnant mouse assessed as stillborn fetus at 2 g/kg, ig; conditions: in vivo, po, 2000 mg/kg
[48] = Toxicity in pregnant mouse assessed as brain damage at 2 g/kg, ig monitored for 2 weeks by HE staining based assay; format: tissue-based; conditions: in vivo, po, 2000 mg/kg, 336 h
[49] = Metabolic stability in rat liver microsomes assessed as intrinsic clearance per mg protein; format: ADME, Microsome
[50] = Toxicity in pregnant mouse assessed as spleen damage at 2 g/kg, ig monitored for 2 weeks by HE staining based assay; format: tissue-based; conditions: in vivo, po, 2000 mg/kg, 336 h
[51] = Toxicity in healthy female mouse assessed as spleen damage at 2 g/kg, ig monitored for 2 weeks by HE staining based assay; format: tissue-based; conditions: in vivo, po, 2000 mg/kg, 336 h
[52] = AUCinfinity in Wistar rat at 5 mg/kg, po; format: ADME, organism-based; design: route oral, time infinity, dose 5 mg/kg; conditions: in vivo
[53] = Toxicity in pregnant mouse assessed as liver damage at 2 g/kg, ig monitored for 2 weeks by HE staining based assay; format: tissue-based; conditions: in vivo, po, 2000 mg/kg, 336 h
[54] = Toxicity in pregnant mouse assessed as heart damage at 2 g/kg, ig monitored for 2 weeks by HE staining based assay; format: tissue-based; conditions: in vivo, po, 2000 mg/kg, 336 h
[55] = Acute toxicity in pregnant mouse assessed as increase in body weight at 2 g/kg, ig; conditions: in vivo, po, 2000 mg/kg

Cc1cc(-c2ccc(C#N)cc2)cc(C)c1Nc1ccnc(Nc2ccc(C#N)cc2)n1
k el [1]: 0.000783 s⁻¹

N#CCN(c1ccnc(Nc2ccc(C#N)cc2)n1)c1c(F)cc(-c2ccc(C#N)cc2)cc1F
selectivity ratio [2]: 4320 | IC50 [3]: 21 nM | CC50 at 120 h [4]: 206000 nM | selectivity ratio [5]: 42500 | EC50 [6]: 5 nM | EC50 [7]: 20.7 nM | EC50 [8]: 47.8 nM | selectivity ratio [9]: 465 | selectivity ratio [10]: 4780 | EC50 [11]: 444 nM | EC50 [12]: 43 nM | EC50 [13]: 36 nM | selectivity ratio [14]: 9960 | selectivity ratio [15]: 5740

Cc1cnc(Nc2ccc(C#N)cc2)nc1Nc1c(F)cc(-c2ccc(C#N)cc2)cc1F
selectivity ratio [2]: > 17500 | AUC [16]: 115 ng·h/mL | half-life [17]: 1.18 h | Cmax [18]: 38.4 ng/mL | IC50 [3]: 13 nM | CC50 at 120 h [4]: > 285000 nM | selectivity ratio [5]: > 208000 | EC50 [6]: 1 nM | EC50 [7]: 8.3 nM | Activity [19]: Non-Toxic | t1/2 [20]: 0.815 h | EC50 [8]: 16.3 nM | Activity [21]: Non-Toxic | Ratio EC50 [22]: 17 | Activity [23]: Non-Toxic | CLH [24]: 30.1 µL/min | k el [25]: 0.000237 s⁻¹ | Activity [26]: Non-Toxic | half-life [27]: 2.13 h | Tmax [28]: 0.67 h | Activity [29]: Toxic | t1/2 [30]: 0.768 h | Activity [31]: Non-Toxic | Activity [32]: Non-Toxic | Activity [33]: Non-Toxic | selectivity ratio [10]: > 25500 | MRT inf [34]: 0.86 h | MRT inf [35]: 3.5 h | Activity [36]: Non-Toxic | Ratio EC50 [37]: 17 | Activity [38]: Non-Toxic | Activity [39]: Non-Toxic | AUC [40]: 1080 ng·h/mL | AUC(0-inf) [41]: 1090 ng·h/mL | EC50 [12]: 11.2 nM | EC50 [13]: 5.4 nM | Activity [42]: Non-Toxic | microsomal CLint [43]: 5 µL/min/mg | Activity [44]: Non-Toxic | Activity [45]: Non-Toxic | selectivity ratio [14]: > 34200 | k el [46]: 0.00025 s⁻¹ | Activity [47]: Non-Toxic | Activity [48]: Non-Toxic | selectivity ratio [15]: > 53200 | CLH [49]: 28.4 µL/min | Activity [50]: Non-Toxic | k el [1]: 8.33e-05 s⁻¹ | Activity [51]: Non-Toxic | AUC(0-inf) [52]: 130 ng·h/mL | Activity [53]: Non-Toxic | Activity [54]: Non-Toxic | Activity [55]: Toxic
